Measurements as given in patent US20230202989A1, “COMPOUNDS” (JANSSEN PHARMACEUTICA NV, priority 2020, published 2023).
Like-named read-outs stand apart in the source and are kept apart here.

How the values were obtained:
IL-1β = assay: PBMC assay: inhibition of IL-1β release after LPS stimulation (MSD); type: cell-based; settings: human PBMCs, 100 ng/ml LPS for 6 hrs, MSD, 96 well plates, read-out: IL1β IC50
How it was run: (§1)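 TNF (EC50) and IL-1β (IC50) were quantified by MSD in supernatants after 6 h stimulation with 100 ng/ml LPS. Thawed healthy-donor PBMCs, 7.5×10^4 per well, were exposed to 1:3 compound dilutions for 30 min beforehand at 37 °C.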

TNF = assay: PBMC assay: TNF cytokine levels after LPS stimulation (MSD); type: cell-based; settings: human PBMCs, 100 ng/ml LPS for 6 hrs
How it was run: as §1

SMILES	IC50 (IL-1β; Homo sapiens, PBMC, 6 h) [µM]	EC50 (TNF; Homo sapiens, PBMC, 6 h) [µM]	IC50 (IL-1β) [µM]	EC50 (TNF) [µM]
CC(C)c1nn(CC(=O)Nc2cc(Br)c3ncnn3c2)c(=O)c2ccc(C(F)(F)F)cc12 [Final Cpd X132]	3.25	> 20		
C[C@]1(O)C[C@@H](NC(=O)Cn2nc(C3(F)CC3)c3cc(C(F)(F)F)ccc3c2=O)C1 [Final Cpd X134]	3.41	> 20		
COC(c1nn(CC(=O)Nc2ccc3nncn3c2)c(=O)c2ccc(C(F)(F)F)cc12)C(F)(F)F (stereo not drawn) [Final Cpd X135]	3.44	> 20		
CC(C)(F)c1nn(CC(=O)Nc2ccc3nncn3c2)c(=O)c2ccc(C(F)(F)F)cc12 [Final Cpd X136]	3.77	> 20		
CC(C)c1nn(CC(=O)Nc2ccc3nn(C)cc3c2)c(=O)c2ccc(C(F)(F)F)cc12 [Final Cpd X137]	3.86	> 20		
CC(C)c1nn(CC(=O)Nc2ccc3c(c2)ncn3C)c(=O)c2ccc(C(F)(F)F)cc12 [Final Cpd X141]	4.71	> 20		
O=C(Cn1nc(C2(F)CC2)c2cc(C(F)(F)F)ccc2c1=O)Nc1ccc2nncn2c1 [Final Cpd X142]	4.74	> 20		
CCN1CCC(NC(=O)Cn2nc(C(C)C)c3cc(C(F)(F)F)ccc3c2=O)CC1 [Final Cpd X143]	4.93	> 20		
CC(C)Cc1nn(CC(=O)Nc2ccc3nncn3c2)c(=O)c2ccc(C(F)(F)F)cc12 [Final Cpd X144]	4.95	> 20		
CC(C)(F)c1nn(CC(=O)N[C@H]2C[C@@](C)(O)C2)c(=O)c2ccc(C(F)(F)F)cc12 [Final Cpd X145]	4.99	> 20		
CC(C)c1nn(CC(=O)Nc2ccc3cnn(C(F)F)c3c2)c(=O)c2ccc(C(F)(F)F)cc12 [Final Cpd X146]	5.72	> 20		
CC(C)c1nn(CC(=O)Nc2cnn(C)c(=O)c2)c(=O)c2ccc(C(F)(F)F)cc12 [Final Cpd X151]	7.45	> 20		
CCN1CCCC(NC(=O)Cn2nc(C(C)C)c3cc(C(F)(F)F)ccc3c2=O)C1=O (stereo not drawn) [Final Cpd X152]	7.5	> 20		
CC(C)c1nn(CC(=O)Nc2ccc(I)nn2)c(=O)c2ccc(C(F)(F)F)cc12 [Final Cpd X154]	3.09	> 20		
CC(C)(F)c1nn(CC(=O)Nc2ccnnc2)c(=O)c2ccc(C(F)(F)F)cc12 [Final Cpd X155]	7.91	17.6		
CC(C)c1nn(CC(=O)NC2CC(F)(F)C2)c(=O)c2ccc(C(F)(F)F)cc12 [Final Cpd X156]	8.77	> 20		
COC1(c2nn(CC(=O)Nc3ccc4nncn4c3)c(=O)c3ccc(C(F)(F)F)cc23)CC1 [Final Cpd X158]	9.99	> 20		

SMILES	IC50 (IL-1β; Homo sapiens, PBMC, 6 h) [µM]	EC50 (TNF; Homo sapiens, PBMC, 6 h) [µM]	IC50 (IL-1β) [µM]	EC50 (TNF) [µM]
CC(C)c1nn(CC(=O)Nc2ccc3c(ncn3C)n2)c(=O)c2ccc(C(F)(F)F)cc12 [Final Cpd X160]	13.4	> 20		
CC(C)c1nn(CC(=O)Nc2ccc(C(F)(F)F)nn2)c(=O)c2ccc(C(F)(F)F)cc12 [Final Cpd X161]	14.2	> 20		
CC(C)c1nn(CC(=O)Nc2cc(C#N)c3ncnn3c2)c(=O)c2ccc(C(F)(F)F)cc12 [Final Cpd X162]	15	> 20		
Cc1nnc2cc(NC(=O)Cn3nc(C(C)C)c4cc(C(F)(F)F)ccc4c3=O)ccn12 [Final Cpd X165]	16.1	> 20		
Cc1cc2nccn2cc1NC(=O)Cn1nc(C(C)C)c2cc(C(F)(F)F)ccc2c1=O [Final Cpd X167]	17.8	> 20		
CC(C)CN1CCc2cc(NC(=O)Cn3nc(C(C)C)c4cc(C(F)(F)F)ccc4c3=O)ccc21 [Final Cpd X168]	> 20	> 20		
CC(C)c1nn(CC(=O)Nc2ccc3nn(C)nc3c2)c(=O)c2ccc(C(F)(F)F)cc12 [Final Cpd X169]	> 20	> 20		
CC(C)c1nn(CC(=O)Nc2ccc3nncn3c2)c(=O)c2ccc(C(F)(F)F)c(C#N)c12 [Final Cpd X170]	> 20	> 20		
CCN1CCc2cc(NC(=O)Cn3nc(C(C)C)c4cc(C(F)(F)F)ccc4c3=O)ccc21 [Final Cpd X171]	> 20	> 20		
CC(C)c1nn(CC(=O)Nc2ccc3c(c2)CCN3C(C)C)c(=O)c2ccc(C(F)(F)F)cc12 [Final Cpd X173]	> 20	> 20		
CC(C)c1nn(CC(=O)Nc2ccc(C(F)F)nn2)c(=O)c2ccc(C(F)(F)F)cc12 [Final Cpd X176]	> 20	> 20		
CO[C@H]1CC[C@H](NC(=O)Cn2nc(C(C)C)c3cc(C(F)(F)F)ccc3c2=O)CC1 [Final Cpd X177]	> 20	> 20		
CC(C)c1nn(CC(=O)Nc2cc(C(F)(F)F)ncn2)c(=O)c2ccc(C(F)(F)F)cc12 [Final Cpd X178]	> 20	> 20		
CC(C)c1nn(CC(=O)Nc2ccc(C3CC3)nn2)c(=O)c2ccc(C(F)(F)F)cc12 [Final Cpd X179]	> 20	> 20		
CC(C)(F)c1nn(CC(=O)Nc2ccncn2)c(=O)c2ccc(C(F)(F)F)cc12 [Final Cpd X180]	> 20	> 20		
CC(C)c1nn(CC(=O)Nc2ncc3ncn(C)c3n2)c(=O)c2ccc(C(F)(F)F)cc12 [Final Cpd X181]	> 20	> 20		

Other lines, results leading:

IC50 (IL-1β; Homo sapiens, PBMC, 6 h) [µM]	EC50 (TNF; Homo sapiens, PBMC, 6 h) [µM]	IC50 (IL-1β) [µM]	EC50 (TNF) [µM]	SMILES
0.122	> 20			O=C(Cn1nc(C(F)F)c2cc(Br)ccc2c1=O)Nc1ccc2nncn2n1 [X-1000]
0.224	> 20			O=C(Cn1nc(C2CC2)c2cc(Br)ccc2c1=O)Nc1ccc2nncn2n1 [X-1001]
0.453	> 20			O=C(Cn1nc(C2CC2)c2cc(Cl)ccc2c1=O)Nc1ccc2nncn2n1 [X-1002]
0.04	9.89			CC(C)c1nn(CC(=O)Nc2ccc3nncn3n2)c(=O)c2ccc(C(C)(F)F)cc12 [X-1003]
0.041	> 20			CC(C)c1nn(CC(=O)Nc2ccc3nncn3n2)c(=O)c2ccc(Br)cc12 [X-1004]
1.47	> 20			CC(C)c1nn(CC(=O)Nc2ccc3cnn(C)c3n2)c(=O)c2ccc(Br)cc12 [X-1005]
0.128	4.47			CC(C)c1nn(CC(=O)Nc2ccc3nccn3n2)c(=O)c2ccc(C(C)(F)F)cc12 [X-1006]
0.015	2.13			CC(C)c1nn(CC(=O)Nc2ccc3nncn3n2)c(=O)c2ccc(C3(F)CC3)cc12 [X-1007]
0.033	2.61			CC(C)c1nn(CC(=O)Nc2ccc3nncn3n2)c(=O)c2ccc(C3CC3)cc12 [X-1008]
0.045	2.83			CC(C)c1ccc2c(=O)n(CC(=O)Nc3ccc4nncn4n3)nc(C(C)C)c2c1 [X-1009]
0.017	3.11			CC(C)c1nn(CC(=O)Nc2ccc3nncn3n2)c(=O)c2ccc(C(C)(C)F)cc12 [X-1010]
0.089	7.56			CC(C)c1nn(CC(=O)Nc2ccc3nccn3n2)c(=O)c2ccc(C(C)(C)F)cc12 [X-1011]
0.18	1.08			CC(C)c1nn(CC(=O)Nc2ccc3nncn3n2)c(=O)c2ccc(C3CCC3)cc12 [X-1012]
> 20	> 20			CCc1nn(CC(=O)Nc2c(-c3ccnc(OC)c3)ccc3c2CCC3)c(=O)c2ccc(Br)cc12 [X-1013]
> 20	> 20			CC(=O)c1nn(CC(=O)Nc2ccn(C(C)C)n2)c(=O)c2ccc(Br)cc12 [X-1014, 2-(4-acetyl-6-bromo-1-oxophthalazin-2(1H)-yl)-N-(1-isopropyl-1H-pyrazol-3-yl)acetamide]
2.13	> 20			COC(C)c1nn(CC(=O)Nc2ccnnc2)c(=O)c2ccc(Br)cc12 (stereo not drawn) [X-1015]
0.819	> 20			COC(C)c1nn(CC(=O)Nc2ccncn2)c(=O)c2ccc(Br)cc12 (stereo not drawn) [X-1016]
0.506	> 20			COC(C)c1nn(CC(=O)Nc2ccc3nncn3c2)c(=O)c2ccc(Br)cc12 (stereo not drawn) [X-1017]
0.832	> 20			COC(C)c1nn(CC(=O)N[C@H]2C[C@@](C)(O)C2)c(=O)c2ccc(Br)cc12 (stereo partly drawn) [X-1018]
0.183	> 20			O=C(Cn1nc(C(F)F)c2cc(Br)ccc2c1=O)Nc1ccc2nncn2c1 [X-1019]
0.133	> 20			C[C@]1(O)C[C@@H](NC(=O)Cn2nc(C(F)F)c3cc(Br)ccc3c2=O)C1 [X-1020]
0.437	> 20			Cn1nc(NC(=O)Cn2nc(C(F)F)c3cc(Br)ccc3c2=O)ccc1=O [X-1021]
0.057	> 20			C[C@]1(O)C[C@@H](NC(=O)Cn2nc(C3CC3)c3cc(Br)ccc3c2=O)C1 [X-1022]
0.101	> 20			O=C(Cn1nc(C2CC2)c2cc(Br)ccc2c1=O)Nc1ccc2nncn2c1 [X-1023]
0.497	> 20			Cn1nc(NC(=O)Cn2nc(C3CC3)c3cc(Br)ccc3c2=O)ccc1=O [X-1024]
		2.52	> 20	COc1ccc2c(=O)n(CC(=O)Nc3ccncn3)nc(C(C)C)c2c1 [X-1025]
> 20	> 20			CCc1nn(CC(=O)Nc2ccn(C(C)C)n2)c(=O)c2ccc(C3CC3)cc12 [X-1026]
0.06	> 20			CC(C)c1nn(CC(=O)N[C@H]2C[C@@](C)(O)C2)c(=O)c2ccc(Cl)cc12 [X-1027]
0.128	> 20			CC(C)c1nn(CC(=O)Nc2ccncn2)c(=O)c2ccc(Cl)cc12 [X-1028]
0.041	> 20			CC(C)c1nn(CC(=O)Nc2ccc3nncn3c2)c(=O)c2ccc(Cl)cc12 [X-1029]
